# From patent US20110038948A1, “Methods of Reducing the Production of Reactive Oxygen Species and Methods of Screening or Identifying Compounds and Compositions that Reduce the Production of Reactive Oxygen Species” (UNIVERSITY OF TENNESSEE RESEARCH FOUNDATION, priority 2005, published 2011)
# Legend:
# [1] = tested on: NADPH oxidase; assay: NADPH oxidase expression in cultured adipocytes; assay type: cell-based, mouse; conditions: glucose 30 mmol/L alone or plus compound, 48 hours
# Method: (§1) 3T3-L1 preadipocytes were incubated at a density of 8000 cells/cm^2 (10 cm^2 dish) and grown in Dulbecco's modified Eagle's medium (DMEM) containing 10% FBS and antibiotics (adipocyte medium) at 37° C. in 5% CO2 in air. Confluent preadipocytes were induced to differentiate with a standard differentiation medium consisting of DMEM-F10 (1:1, vol/vol) medium supplemented with 1% FBS, 1 μM dexamethasone, IBMX (0.5 mM) and antibiotics (1% Penicillin-Streptomycin). Preadipocytes were maintained in this differentiation medium for 3 days and subsequently cultured in adipocyte medium. Cultures were re-fed every 2-3 days to allow 90% of cells to reach full differentiation before conducting chemical treatment. Chemicals were freshly diluted in adipocyte medium before treatment. Cells were washed with fresh adipocyte medium, re-fed with medium containing the different treatments, and incubated at 37° C. in 5% CO2 in air before analysis. Cell viability was measured via trypan blue exclusion. Adipocyte 18s, cyclin A, NADPH oxidase, and UCP2 were quantitatively measured using a Smart Cycler Real Time PCR System (Cepheid, Sunnyvale, Calif.) with a TaqMan 1000 Core Reagent Kit (Applied Biosystems, Branchburg, N.J.). The primers and probe sets were ordered from Applied Biosystems TaqMan® Assays-on-Demand™ Gene Expression primers and probe set collection according to manufacture's instruction. Pooled adipocyte total RNA was serial-diluted in the range of 1.5625-25 ng and used to establish a standard curve; total RNAs for unknown samples were also diluted in this range. Reactions of quantitative RT-PCR for standards and unknown samples were also performed according to the instructions of Smart Cycler System (Cepheid, Sunnyvale, Calif.) and TaqMan Real Time PCR Core Kit (Applied Biosystems, Branchburg, N.J.). The mRNA quantitation for each sample was further normalized using the corresponding 18s quantitation.
# [2] = tested on: 3T3-L1 adipocytes; assay: Intracellular ROS generation in cultured adipocytes (H2-DCFDA); assay type: cell-based, mouse
# Method: 3T3-L1 preadipocytes were incubated at a density of 8000 cells/cm^2 (10 cm^2 dish) and grown in Dulbecco's modified Eagle's medium (DMEM) containing 10% FBS and antibiotics (adipocyte medium) at 37° C. in 5% CO2 in air. Confluent preadipocytes were induced to differentiate with a standard differentiation medium consisting of DMEM-F10 (1:1, vol/vol) medium supplemented with 1% FBS, 1 μM dexamethasone, IBMX (0.5 mM) and antibiotics (1% Penicillin-Streptomycin). Preadipocytes were maintained in this differentiation medium for 3 days and subsequently cultured in adipocyte medium. Cultures were re-fed every 2-3 days to allow 90% of cells to reach full differentiation before conducting chemical treatment. Chemicals were freshly diluted in adipocyte medium before treatment. Cells were washed with fresh adipocyte medium, re-fed with medium containing the different treatments, and incubated at 37° C. in 5% CO2 in air before analysis. Cell viability was measured via trypan blue exclusion. […] Cells were loaded with H2-DCFDA (2 μmol/L) 30 minute before the end of the incubation period (48 h). After washing twice with PBS, cells were scraped and disrupted by sonication on ice (20 s). Fluorescence (emission 543 nm or 527 nm) and DNA content were then measured as described previously. The intensity of fluorescence was expressed as arbitrary units per ng DNA.
# [3] = tested on: C2C12 myotubes; assay: Fatty acid oxidation (palmitate oxidation) in muscle cells; assay type: cell-based, murine
# Method: FIG. 53: Fatty acid oxidation was determined via palmitate oxidation. […] Data are corrected for DNA content. Values are presented as mean±SEM, n=6. Means with different letter differ with p<0.05.
# The adipose tissue-skeletal muscle endocrine axis may play a potential role in regulating metabolic energy partitioning. […] While both calcium and dairy accelerate adipose tissue loss, dairy exerts a substantially greater effect and exerts a protective effect on lean tissue during hypocaloric diets. We have shown that dietary calcium modulation of adiposity is mediated, in part, by suppression of calcitriol, while the additional effect of dairy is mediated by additional bioactive components; these include the high concentration of leucine, a key factor in the regulation of muscle protein turnover. […] However, the effect of leucine and calcium, in regulating this process is unclear. Accordingly, present study was designed to investigate the effect of leucine, calcitriol and calcium on energy metabolism in murine adipocytes and muscle cells. Leucine induced a 41% increase in fatty acid oxidation in C2C12 muscle cells (p<0.001) and decreased fatty acid synthase gene expression by 66% (p<0.001) in 3T3-L1 adipocytes. Calcitriol decreased muscle cell fatty acid oxidation by 17% (p<0.05) and increased adipocyte FAS gene expression by 3-fold (p<0.05).
# [4] = tested on: fatty acid synthase; assay: Fatty acid synthase gene expression in adipocytes; assay type: cell-based, murine
# From the text: The adipose tissue-skeletal muscle endocrine axis may play a potential role in regulating metabolic energy partitioning. […] However, the effect of leucine and calcium, in regulating this process is unclear. Accordingly, present study was designed to investigate the effect of leucine, calcitriol and calcium on energy metabolism in murine adipocytes and muscle cells.
# [5] = tested on: C2C12 myotubes; assay: IL-15 release by myotubes (ELISA); assay type: cell-based, murine; conditions: for effect on IL-15 release: C2C12 myotubes, 48 hours
# Method: IL-15 release in the medium was determined using ELISA. Data are corrected for DNA content. Values are presented as mean±SEM, n=6. Means with different letter differ with p<0.05.
# [6] = tested on: TNFα; assay: TNFα expression in RAW 264 macrophages; assay type: cell-based; conditions: RAW 264 macrophages cultured alone; compound added to calcitriol
# Method: (§2) RAW 264 macrophages and 3T3-L1 preadipocytes (American Type Culture Collection) were incubated at a density of 8000 cells/cm2 (10 cm2 dish) and grown in Dulbecco's modified Eagle's medium (DMEM) containing 10% FBS and antibiotics (adipocyte medium) at 37° C. in 5% CO2 in air. Confluent 3T3-L1 preadipocytes were induced to differentiate with a standard differentiation medium consisting of DMEM-F10 (1:1, vol/vol) medium supplemented with 1% FBS, 1 μM dexamethasone, IBMX (0.5 mM) and antibiotics (1% Penicillin-Streptomycin). Preadipocytes were maintained in this differentiation medium for 3 days and subsequently cultured in adipocyte medium. Cultures were re-fed every 2-3 days to allow 90% cells to reach fully differentiation for 3T3-L1 adipocytes or grow to a confluence for RAW 264 before conducting chemical treatment.
# (§3) Cells were washed with fresh adipocyte medium, re-fed with medium containing the indicated treatments, and incubated at 37° C. in 5% CO2 for 48 hours before analysis. Cell viability was measured via trypan blue exclusion.
# (§4) Human adipocytes (Zen-Bio, Inc.), 3T3-L1 adipocytes, RAW264 macrophages were obtained and co-cultured by using transwell inserts with 0.4 μm porous membranes (Corning) to separate adipocytes and macrophages. All data are expressed as mean±SEM. Data were evaluated for statistical significance by analysis of one-way or two-way variance (ANOVA; means with different letter differ, p<0.05).
# Adipocyte and muscle 18s, CD14, TNFα, MIP, M-CSF, IL-6 and MCP-1 were quantitatively measured using a Smart Cycler Real Time PCR System (Cepheid, Sunnyvale, Calif.) with a TaqMan 1000 Core Reagent Kit (Applied Biosystems, Branchburg, N.J.). […] Reactions of quantitative RT-PCR for standards and unknown samples were also performed according to the instructions of Smart Cycler System (Cepheid, Sunnyvale, Calif.) and TaqMan Real Time PCR Core Kit (Applied Biosystems, Branchburg, N.J.). The mRNA quantitation for each sample was further normalized using the corresponding 18s quantitation.
# [7] = tested on: IL-6; assay: IL-6 expression in RAW 264 macrophages; assay type: cell-based; conditions: RAW 264 macrophages cultured alone; compound added to calcitriol
# Method: as §2, with “Cultures were re-fed every 2-3 days to allow 90% cells to reach fully differentiation for 3T3-L1 adipocytes or grow to a confluence for RAW 264 before conducting chemical treatment.” left out
# as §3
# as §4, with “p<0.05). […]” for “p<0.05).”
# [8] = tested on: 3T3-L1 adipocytes; assay: Mitochondrial membrane potential (JC-1); assay type: cell-based, mouse; conditions: GDP 100 μmol/L plus H2O2
# Method: 3T3-L1 preadipocytes were incubated at a density of 8000 cells/cm^2 (10 cm^2 dish) and grown in Dulbecco's modified Eagle's medium (DMEM) containing 10% FBS and antibiotics (adipocyte medium) at 37° C. in 5% CO2 in air. Confluent preadipocytes were induced to differentiate with a standard differentiation medium consisting of DMEM-F10 (1:1, vol/vol) medium supplemented with 1% FBS, 1 μM dexamethasone, IBMX (0.5 mM) and antibiotics (1% Penicillin-Streptomycin). Preadipocytes were maintained in this differentiation medium for 3 days and subsequently cultured in adipocyte medium. Cultures were re-fed every 2-3 days to allow 90% of cells to reach full differentiation before conducting chemical treatment. Chemicals were freshly diluted in adipocyte medium before treatment. […] Cell viability was measured via trypan blue exclusion.
# Mitochondrial membrane potential was analyzed fluorometrically with a lipophilic cationic dye JC-1 (5,5′,6,6′-tetrachloro-1,1′,3,3′-tetraethylbenzimidazol carbocyanine iodide) using a mitochondrial potential detection kit (Biocarta, San Diego, Calif.). Mitochondrial potential was determined as the ratio of red fluorescence (excitation 550 nm, emission 600 nm) and green fluorescence (excitation 485 nm, emission 535 nm) using a fluorescence microplate reader.
# [9] = tested on: cyclin A; assay: Cyclin A expression in cultured adipocytes; assay type: cell-based, mouse; conditions: compound plus glucose 30 mmol/L, 48 hours
# Method: as §1, with “Cells were washed with fresh adipocyte medium, re-fed with medium containing the different treatments, and incubated at 37° C. in 5% CO2 in air before analysis.” left out, “The primers and probe sets were ordered from Applied Biosystems TaqMan® Assays-on-Demand™ Gene Expression primers and probe set collection according to manufacture's instruction. Pooled adipocyte total RNA was serial-diluted in the range of 1.5625-25 ng and used to establish a standard curve; total RNAs for unknown samples were also diluted in this range.” left out
# [10] = tested on: 3T3-L1 adipocytes; assay: Cell proliferation / DNA synthesis in cultured adipocytes (CyQUANT); assay type: cell-based, mouse; conditions: compound plus glucose 30 mmol/L, 48 hours
# Method: 3T3-L1 preadipocytes were incubated at a density of 8000 cells/cm^2 (10 cm^2 dish) and grown in Dulbecco's modified Eagle's medium (DMEM) containing 10% FBS and antibiotics (adipocyte medium) at 37° C. in 5% CO2 in air. Confluent preadipocytes were induced to differentiate with a standard differentiation medium consisting of DMEM-F10 (1:1, vol/vol) medium supplemented with 1% FBS, 1 μM dexamethasone, IBMX (0.5 mM) and antibiotics (1% Penicillin-Streptomycin). Preadipocytes were maintained in this differentiation medium for 3 days and subsequently cultured in adipocyte medium. Cultures were re-fed every 2-3 days to allow 90% of cells to reach full differentiation before conducting chemical treatment. Chemicals were freshly diluted in adipocyte medium before treatment. Cells were washed with fresh adipocyte medium, re-fed with medium containing the different treatments, and incubated at 37° C. in 5% CO2 in air before analysis. Cell viability was measured via trypan blue exclusion. Cells were plated in DMEM with different treatment in duplicate in 96-well plates. After 48 h, a CyQUANT Cell Proliferation Kit (Molecular Probes, Eugene, Oreg.) was used following the manufacturer's protocol. a microplate fluorometer (Packard Instrument Company, Inc., Downers Grove, Ill.) was used to measure CyQUANT fluorescence. Cell viability was determined by Trypan blue exclusion examination.
molecule,measurement,setting,value
O=C[C@H](O)[C@@H](O)[C@H](O)[C@H](O)CO [glucose],effect on NADPH oxidase expression,[1],increased
same,effect on ROS production,"[2]; glucose 30 mmol/L, 48 hours, p<0.05",increased ROS production significantly
CC(C)C[C@H](N)C(=O)O [leucine],increase in fatty acid oxidation,"[3]; C2C12 muscle cells, leucine 2.5 mM, 48 hours, p<0.001",41%
same,effect on conditioned medium decreased fatty acid oxidation in muscle cells,[3]; adipocytes conditioned with leucine and/or nifedipine,attenuated
same,effect on calcitriol decreased muscle cell fatty acid oxidation,[3]; compound added to calcitriol,partially reversed
same,decrease in fatty acid synthase gene expression,"[4]; 3T3-L1 adipocytes, p<0.001",66%
same,effect on calcitriol increased adipocyte FAS gene expression,[4]; compound added to calcitriol,partially reversed
same,effect on IL-15 release,[5],without effect
O=[N+]([O-])c1ccc(O)c([N+](=O)[O-])c1 [DNP],effect on calcitriol stimulated TNFα expression,[6],blocked
same,effect on calcitriol stimulated IL-6 expression,[7],blocked
Nc1nc2c(ncn2[C@@H]2O[C@H](COP(=O)(O)OP(=O)(O)O)[C@@H](O)[C@H]2O)c(=O)[nH]1 [GDP],augmentation of the H2O2 effect on mitochondrial potential,[8],10%
same,effect on NADPH oxidase expression,[1],suppressed
same,increase in ROS production compared with H2O2 treatment alone,"[2]; GDP 100 μmol/L plus H2O2, 48 hours, p<0.01",24%
same,effect on high glucose induced ROS production,"[2]; compound plus glucose 30 mmol/L, 48 hours",further stimulated
same,effect on glucose stimulated cyclin A expression,[9],augmented
same,effect on glucose induced DNA synthesis,[10],augmented
"adiponectin: adipokine added to C2C12 myotubes at 70 ng/ml (protein, UniProt Q15848 19-244, looked up) Adiponectin: ETTTQGPGVLLPLPKGACTGWMAGIPGHPGHNGAPGRDGRDGTPGEKGEKGDPGLIGPKGDIGETGVPGAEGPRGFPGIQGRKGEPGEGAYVYRSAFSVGLETYVTIPNMPIRFTKIFYNQQNHYDGSTGKFHCNIPGLYYFAYHITVYMKDVKVSLFKKDKAMLFTYDQYQENNVDQASGSVLLHLEVGDQVWLQVYGEGERNGLYADNDNDSTFTGFLLYHDTN",effect on fatty acid oxidation,"[3]; C2C12 myotubes, adiponectin 70 ng/ml, 48 hours",markedly increased
same,effect on fatty acid oxidation suppressed by calcitriol,[3]; in the presence of leucine,restored
same,effect on IL-15 release,[5],significantly increased
same,effect on calcitriol inhibition of IL-15 release,[5]; adiponectin 70 ng/ml plus calcitriol 10 nM,partially reversed
